Laboratory results reported in patent US12692254B2, “Benzimidazole inhibitors of PAD enzymes” (BRISTOL-MYERS SQUIBB COMPANY, priority 2018, dated 2026).

molecular target: human PAD4 (hPAD4) (Homo sapiens, UniProt Q9UM07); assay: RFMS human PAD4 functional assay (rapid-fire mass spectrum); format: biochemical; settings: 5 nM hPAD4 enzyme, 250 μM BAEE, 50 μM Calcium; 30 min preincubation, 90 min reaction at 37° C.
Procedure: Compounds of the present invention were assayed as inhibitors of PAD4 using the assay protocol described below.
RFMS tinman PAD4 Functional Assay:
Compounds were solubilized in 100% DMSO to achieve a 10 mM compound concentration. Compound stock solutions were stored at RT. A series of dilutions were prepared in DMSO and mixed 8 times with 20 μl, mixing volume. Final top concentration of compound in the assay is 50 μM. […] 1-90 min enzyme/substrate reaction, 30 min reaction with phenyl glyoxal at 37° C. • Stop solution: 40 μl 5% TCA in ACN
0.13 μL of compound solution was added to 13 μL of 10 nM PAD4 in assay buffer. After 30 min 13 μl of 500 μM of BAEE was added in 25 mM hepes, pH 7.5, 5 mM NaCl, 1 mM DTT, 0.2 mg/ml BS A, 0.01% CHAPS, 50 μM Calcium, 5 μM TPEN was added and the reaction incubated for 90 min at 37° C. The enzymatic reaction was quenched by addition of 15 μl of 6.1N TCA, 100% Final Concentration is 20%, 35 μl of 8.5 mM phenyl glyoxal (final concentration 4 mM) is then added and the reaction is incubated for 30 min at 37° C.
After 30 minutes the plates are spun down to remove all precipitate. The enzyme reaction was quenched with an equal volume of methanol containing internal standard (modified citrulline). Samples were loaded onto the Rapid Fire RF300 system (Agilent) wherein they were first sipped for 1000 ms and then directly loaded to a C18 separations cartridge using a mixture of acetonitrile containing 0.01% formic acid for 3000 ms desalting. The flow rate of the mobile phase was 1.5 ml/min.
The dwell time for each transition was set at 200 ms, and the ESI voltage was used at 5500 with a source temperature of 400° C. Extracted ion peaks for each transition were integrated using the Rapid Fire Integrator software. Peak area of analyte was normalized with internal standard).

Sequence of human PAD4 (hPAD4) (Q9UM07 whole entry): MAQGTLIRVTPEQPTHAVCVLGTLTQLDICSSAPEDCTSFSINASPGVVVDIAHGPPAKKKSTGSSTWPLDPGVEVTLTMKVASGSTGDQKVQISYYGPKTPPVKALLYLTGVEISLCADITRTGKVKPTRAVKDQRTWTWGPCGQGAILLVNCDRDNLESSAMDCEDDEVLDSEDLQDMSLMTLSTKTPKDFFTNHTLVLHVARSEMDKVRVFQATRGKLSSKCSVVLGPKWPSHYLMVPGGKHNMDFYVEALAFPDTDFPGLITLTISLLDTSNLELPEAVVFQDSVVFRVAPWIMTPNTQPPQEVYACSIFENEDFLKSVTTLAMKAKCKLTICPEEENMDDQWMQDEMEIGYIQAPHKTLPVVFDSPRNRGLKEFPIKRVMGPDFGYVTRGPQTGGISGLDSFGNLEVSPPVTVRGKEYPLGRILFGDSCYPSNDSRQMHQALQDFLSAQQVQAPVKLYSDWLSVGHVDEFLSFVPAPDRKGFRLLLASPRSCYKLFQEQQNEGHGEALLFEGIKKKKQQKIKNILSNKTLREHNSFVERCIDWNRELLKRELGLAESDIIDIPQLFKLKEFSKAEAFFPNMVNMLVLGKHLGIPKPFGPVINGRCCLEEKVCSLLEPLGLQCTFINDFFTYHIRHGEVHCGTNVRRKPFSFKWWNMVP

Row | SMILES | IC50
1 | COc1nccnc1N1CC(Cn2c(-c3cc4cccnc4n3CC3CC3)nc3cc(C(=O)N4C[C@H]5CC[C@@H]4[C@@H]5N)cc(OC)c32)C1 [Example 43, (1R,4R,7R)-2-{2-[1-(cyclopropylmethyl)-1H-pyrrolo[2,3-b]pyridin-2-yl]-7-methoxy-1-{[1-(3-methoxypyrazin-2-yl)azetidin-3-yl]methyl}-1H-1,3-benzodiazole-5-carbonyl}-2-azabicyclo[2.2.1]heptan-7-amine] | 103 nM
2 | COc1cc(C(=O)N2CC3CCC2[C@@H]3N)cc2nc(-c3cc4cccnc4n3CC3CC3)n(CC3CCN(c4ncccn4)C3)c12 (stereo in doubt) [Example 231, (1R,4R,7R)-2-{2-[1-(cyclopropylmethyl)-1H-pyrrolo[2,3-b]pyridin-2-yl]-7-methoxy-1-{[(3S)-1-(pyrimidin-2-yl)pyrrolidin-3-yl]methyl}-1H-1,3-benzodiazole-5-carbonyl}-2-azabicyclo [2.2.1]heptan-7-amine] | 203 nM
3 | COc1cc(C(=O)N2C[C@H]3CC[C@@H]2[C@@H]3N)cc2nc(-c3cc4ccccc4n3CC3CC3)n(CC3CN(C(=O)c4cccc(F)c4)C3)c12 [Example 169, (1R,4R,7R)-2-{2-[1-(cyclopropylmethyl)-1H-indol-2-yl]-1-{[1-(3-fluorobenzoyl)azetidin-3-yl]methyl}-7-methoxy-1H-1,3-benzodiazole-5-carbonyl}-2-azabicyclo[2.2.1]heptan-7-amine] | 33 nM
4 | COc1cc(C(=O)N2C[C@H]3CC[C@@H]2[C@@H]3N)cc2nc(-c3cc4ccccc4n3CC3CC3)n(CC3CN(C(=O)c4cccn4C)C3)c12 [Example 148, (1R,4R,7R)-2-{2-[1-(cyclopropylmethyl)-1H-indol-2-yl]-7-methoxy-1-{[1-(1-methyl-1H-pyrrole-2-carbonyl)azetidin-3-yl]methyl}-1H-1,3-benzodiazole-5-carbonyl}-2-azabicyclo[2.2.1]heptan-7-amine] | 19 nM
5 | COc1cc(C(=O)N2C[C@H]3CC[C@@H]2[C@@H]3N)cc2nc(-c3cc4cccnc4n3CC3CC3)n(CC3CN(C(=O)C4CCCCC4)C3)c12 [Example 110, (1R,4R,7R)-2-{1-[(1-cyclohexanecarbonylazetidin-3-yl)methyl]-2-[1-(cyclopropylmethyl)-1H-pyrrolo[2,3-b]pyridin-2-yl]-7-methoxy-1H-1,3-benzodiazole-5-carbonyl}-2-azabicyclo[2.2.1]heptan-7-amine] | 46 nM
6 | COc1cc(C(=O)N2C[C@H]3CC[C@@H]2[C@@H]3N)cc2nc(-c3cc4cccnc4n3CC3CC3)n(C3CN(C(=O)c4ccncn4)C3)c12 [Example 100, (1R,4R,7R)-2-{2-[1-(cyclopropylmethyl)-1H-pyrrolo[2,3-b]pyridin-2-yl]-7-methoxy-1-[1-(pyrimidine-4-carbonyl)azetidin-3-yl]-1H-1,3-benzodiazole-5-carbonyl}-2-azabicyclo[2.2.1]heptan-7-amine] | 117 nM
7 | CCCC(=O)N1CC(Cn2c(-c3cc4cccnc4n3CC3CC3)nc3cc(C(=O)N4C[C@H]5CC[C@@H]4[C@@H]5N)cc(OC)c32)C1 [Example 118, 1-[3-({5-[(1R,4R,7R)-7-amino-2-azabicyclo[2.2.1]heptane-2-carbonyl]-2-[1-(cyclopropylmethyl)-1H-pyrrolo[2,3-b]pyridin-2-yl]-7-methoxy-1H-1,3-benzodiazol-1-yl}methyl)azetidin-1-yl]butan-1-one] | 68 nM
8 | COc1cc(C(=O)N2C[C@H]3CC[C@@H]2[C@@H]3N)cc2nc(-c3cc4cccnc4n3CC3CC3)n(C3CN(c4cncc(C#N)c4)C3)c12 [Example 73, 5-(3-{5-[(1R,4R,7R)-7-amino-2-azabicyclo[2.2.1]heptane-2-carbonyl]-2-[1-(cyclopropylmethyl)-1H-pyrrolo[2,3-b]pyridin-2-yl]-7-methoxy-1H-1,3-benzodiazol-1-yl}azetidin-1-yl)pyridine-3-carbonitrile] | 149 nM

Second part, the compound after the results:

Row | IC50 | SMILES
9 | 16 nM | COc1cc(C(=O)N2CC3CCC2[C@@H]3N)cc2nc(-c3cc4ccccc4n3CC3CC3)n(Cc3cnn(-c4ccc(C)nc4)c3)c12 (stereo partly drawn) [Example 350, (7R)-2-{2-[1-(cyclopropylmethyl)-1H-indol-2-yl]-7-methoxy-1-{[1-(6-methylpyridin-3-yl)-1H-pyrazol-4-yl]methyl}-1H-1,3-benzodiazole-5-carbonyl}-2-azabicyclo[2.2.1]heptan-7-amine]
10 | 34 nM | COc1cc(C(=O)N2CC3CCC2[C@@H]3N)cc2nc(-c3cc4ccc(C(C)O)cc4n3CC3CC3)n(CC3CN(C(=O)c4ccc(C#N)cc4)C3)c12 (stereo partly drawn) [Example 523, 4-[3-({5-[(7R)-7-amino-2-azabicyclo[2.2.1]heptane-2-carbonyl]-2-[1-(cyclopropylmethyl)-6-(1-hydroxyethyl)-1H-indol-2-yl]-7-methoxy-1H-1,3-benzodiazol-1-yl}methyl)azetidine-1-carbonyl]benzonitrile]
11 | 35 nM | COc1cc(C(=O)N2C[C@H](N)C[C@@H](F)C2)cc2nc(-c3cc4cccnc4n3CC3CC3)n(Cc3cnn(-c4cccc(C(F)F)n4)c3)c12 [Example 375]
12 | 91 nM | N#Cc1ccc(C(=O)N2CC(Cn3c(-c4cc5cccnc5n4CC4CC4)nc4cc(C(=O)N5CC6CCC5[C@@H]6N)ccc43)C2)cc1 (stereo partly drawn) [Example 467, 4-[3-({5-[(7R)-7-amino-2-azabicyclo[2.2.1]heptane-2-carbonyl]-2-[1-(cyclopropylmethyl)-1H-pyrrolo[2,3-b]pyridin-2-yl]-1H-1,3-benzodiazol-1-yl}methyl)azetidine-1-carbonyl]benzonitrile]
13 | 20 nM | COc1cc(C(=O)N2C[C@H]3CC[C@@H]2[C@@H]3N)cc2nc(-c3cc4cccnc4n3CC3CC3)n(C[C@H]3CCNC3)c12 [Example 263, (1R,4R,7R)-2-{2-[1-(cyclopropylmethyl)-1H-pyrrolo[2,3-b]pyridin-2-yl]-7-methoxy-1-{[(3S)-pyrrolidin-3-yl]methyl}-1H-1,3-benzodiazole-5-carbonyl}-2-azabicyclo[2.2.1]heptan-7-amine]
14 | 27 nM | COc1cc(C(=O)N2C[C@H](N)C[C@@H](F)C2)cc2nc(-c3cc4ccccc4n3CC3CC3)n(CC3(F)CN(C(=O)c4ccccc4)C3)c12 [Example 425, (3R,5R)-1-{1-[(1-benzoyl-3-fluoroazetidin-3-yl)methyl]-2-[1-(cyclopropylmethyl)-1H-indol-2-yl]-7-methoxy-1H-1,3-benzodiazole-5-carbonyl}-5-fluoropiperidin-3-amine]
15 | 32 nM | COc1cc(C(=O)N2CC3CCC2[C@@H]3N)cc2nc(-c3cc4cccnc4n3CC3CC3)n(Cc3cnn(-c4cncc(F)c4)c3)c12 (stereo partly drawn) [Example 372, (7R)-2-{2-[1-(cyclopropylmethyl)-1H-pyrrolo[2,3-b]pyridin-2-yl]-1-{[1-(5-fluoropyridin-3-yl)-1H-pyrazol-4-yl]methyl}-7-methoxy-1H-1,3-benzodiazole-5-carbonyl}-2-azabicyclo[2.2.1]heptan-7-amine]
16 | 89 nM | COc1cc(C(=O)N2C[C@H](N)C[C@@H](F)C2)cc2nc(-c3cc4cccnc4n3CC3CC3)n(Cc3cnn(C)c3)c12 [Example 250, ((3R,5R)-3-amino-5-fluoropiperidin-1-yl)(2-(1-(cyclopropylmethyl)-1H-pyrrolo[2,3-b]pyridin-2-yl)-7-methoxy-1-((1-methyl-1H-pyrazol-4-yl)methyl)-1H-benzo[d]imidazol-5-yl)methanone]
17 | 37 nM | COc1cc(C(=O)N2CC3CCC2[C@@H]3N)cc2nc(-c3cc4cccnc4n3CC3CC3)n(Cc3cnn(-c4ccc[n+]([O-])c4)c3)c12 (stereo partly drawn) [Example 377, 3-[4-({5-[(7R)-7-amino-2-azabicyclo[2.2.1]heptane-2-carbonyl]-2-[1-(cyclopropylmethyl)-1H-pyrrolo[2,3-b]pyridin-2-yl]-7-methoxy-1H-1,3-benzodiazol-1-yl}methyl)-1H-pyrazol-1-yl]pyridin-1-ium-1-olate]
18 | 23 nM | COc1cc(C(=O)N2CC3CCC2[C@@H]3N)cc2nc(-c3cc4ccccc4n3CC3CC3)n(Cc3cnn(-c4cncc(F)c4)c3)c12 (stereo partly drawn) [Example 359, (7R)-2-{2-[1-(cyclopropylmethyl)-1H-indol-2-yl]-1-{[1-(5-fluoropyridin-3-yl)-1H-pyrazol-4-yl]methyl}-7-methoxy-1H-1,3-benzodiazole-5-carbonyl}-2-azabicyclo[2.2.1]heptan-7-amine]
19 | 30 nM | COc1cc(C(=O)N2CC3CCC2[C@@H]3N)cc2nc(-c3cc4cccnc4n3CC3CC3)n(CC3CN(C(=O)C4CCC(F)(F)C4)C3)c12 (stereo partly drawn) [Example 430, (7R)-2-{2-[1-(cyclopropylmethyl)-1H-pyrrolo[2,3-b]pyridin-2-yl]-1-{[1-(3,3-difluorocyclopentanecarbonyl)azetidin-3-yl]methyl}-7-methoxy-1H-1,3-benzodiazole-5-carbonyl}-2-azabicyclo[2.2.1]heptan-7-amine]
